Data reported in patent US20260274894A1, “CYCLIC POLYPEPTIDE COMPOUND AND USE THEREOF” (BIVISION PHARMACEUTICALS, INC., priority 2023, published 2026).
Numbered stars: 1 amine (or outer) side, 2 acyl side, 3 side chain; on linkers, the order of the positions; unused ones are H or OH. Bridge positions count the residues as written; N and C are the ends. Square brackets hold non-standard residues; d marks the D form. Side chains are listed from the residue outwards. Peptide text beside a SMILES is read from it. * marks the point of attachment. ξ: configuration not given here. Acetyl(4-DOTA-piperazinyl) = O=C(O)CN1CCN(CC(=O)O)CCN(CC(=O)N2CCN(CC(=O)*)CC2)CCN(CC(=O)O)CC1; X2 = O=C(O)CN1CCN(CC(=O)O)CCN(CC(=O)N2CCN(CCCN*)CC2)CCN(CC(=O)O)CC1; X1 = O=C(O)CN1CCN(CC(=O)O)CCN(CC(=O)CCCN*)CCN(CC(=O)O)CC1; DOTA = O=C(O)CN1CCN(CC(=O)O)CCN(CC(=O)*)CCN(CC(=O)O)CC1; Azetidine3carboxylic = O=C(C1CN([*:1])C1)[*:2]; mXylylene = c1cc(C[*:1])cc(C[*:2])c1; Cha = N[C@@H](CC1CCCCC1)C(=O)O; Dab = NCC[C@H](N)C(=O)O; Dap = NC[C@H](N)C(=O)O; Aoc = NCCCCCCCC(=O)O; CO = O=C([*:1])[*:2]; ξP = O=C(O)C1CCCN1; ξC = NC(CS)C(=O)O; NHBu = CCCCN*

Assays:
[1] = target: dipeptidyl peptidase IV (DPPIV) (Homo sapiens, UniProt P27487); assay: Protease inhibition (selectivity) assay, DPPIV, Gly-Pro-AMC substrate; assay type: biochemical; settings: recombinant human DPPIV 0.1 nM; read-out: pIC50 (DPPIV) (converted)
Experimental: (§1) The specificity of the synthesized compounds for recombinant human dipeptidyl peptidase IV (DPPIV), fibroblast activation protein (FAP), or prolyl oligopeptidase (PREP) was expressed by their half-maximal inhibitory concentration (IC50) against the proteases. […] No. I-1145.0050BA) in DMSO; DPPIV: 100 mM Gly-Pro-AMC (VWR, Cat. No. 100042-646) in DMSO), and the stock solution of the substrate was subsequently diluted 20-fold using the corresponding buffer described above. • 4) The enzyme was diluted into an appropriate assay buffer. […] Column 1 (A, B, C) was prepared using 200 μL of an appropriate analysis buffer as a control. Column 1 (D, E, F, G, H) was prepared with 20 μL of an appropriate assay buffer and 180 μL of the enzyme as the inhibitor-free control. • 5) Where appropriate, 20 μL of the test compound was added from the dilution plate prepared in step 2 to columns 2-10 of the assay plate. Each sample should be tested in triplicate. It was incubated at room temperature for 10 minutes, with the plate being shaken for the first two minutes. • 6) 10 μL of the 20× substrate prepared in step 3 was added to each well and incubated at room temperature for 15 minutes, with the plate being shaken for the first two minutes. • 7) Fluorescence was read at λex:380 and λem:460.

[2] = target: T1, fibroblast activation protein (FAP) (Homo sapiens, UniProt Q12884); assay: Protease inhibition (selectivity) assay, FAP, Z-Gly-Pro-AMC substrate; assay type: biochemical; settings: recombinant human FAP 1.2 nM
T1 sequence (Q12884 1-760): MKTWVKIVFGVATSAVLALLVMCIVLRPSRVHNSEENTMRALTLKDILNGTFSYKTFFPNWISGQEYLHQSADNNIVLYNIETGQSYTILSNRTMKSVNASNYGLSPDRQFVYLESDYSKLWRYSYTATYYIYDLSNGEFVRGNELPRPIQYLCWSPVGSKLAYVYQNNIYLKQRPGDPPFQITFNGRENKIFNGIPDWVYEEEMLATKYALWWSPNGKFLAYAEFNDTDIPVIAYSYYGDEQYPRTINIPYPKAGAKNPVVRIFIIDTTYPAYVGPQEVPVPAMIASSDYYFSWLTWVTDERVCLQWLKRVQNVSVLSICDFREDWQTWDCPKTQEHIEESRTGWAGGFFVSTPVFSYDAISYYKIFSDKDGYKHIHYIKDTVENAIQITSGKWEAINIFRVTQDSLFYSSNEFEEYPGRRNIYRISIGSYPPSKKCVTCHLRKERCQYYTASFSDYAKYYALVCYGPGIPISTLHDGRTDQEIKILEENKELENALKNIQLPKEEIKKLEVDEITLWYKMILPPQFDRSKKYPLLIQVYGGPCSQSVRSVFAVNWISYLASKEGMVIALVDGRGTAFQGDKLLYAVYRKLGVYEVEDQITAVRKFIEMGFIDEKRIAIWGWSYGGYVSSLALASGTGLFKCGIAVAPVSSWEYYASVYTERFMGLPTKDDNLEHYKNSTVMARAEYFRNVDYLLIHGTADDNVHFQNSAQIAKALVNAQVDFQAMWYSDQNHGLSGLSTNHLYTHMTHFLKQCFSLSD
Experimental: as §1

[3] = target: T2, prolyl oligopeptidase (PREP) (Homo sapiens, UniProt P48147); assay: Protease inhibition (selectivity) assay, PREP, Z-Gly-Pro-AMC substrate; assay type: biochemical; settings: recombinant human PREP 0.6 nM
T2 sequence (P48147 1-710): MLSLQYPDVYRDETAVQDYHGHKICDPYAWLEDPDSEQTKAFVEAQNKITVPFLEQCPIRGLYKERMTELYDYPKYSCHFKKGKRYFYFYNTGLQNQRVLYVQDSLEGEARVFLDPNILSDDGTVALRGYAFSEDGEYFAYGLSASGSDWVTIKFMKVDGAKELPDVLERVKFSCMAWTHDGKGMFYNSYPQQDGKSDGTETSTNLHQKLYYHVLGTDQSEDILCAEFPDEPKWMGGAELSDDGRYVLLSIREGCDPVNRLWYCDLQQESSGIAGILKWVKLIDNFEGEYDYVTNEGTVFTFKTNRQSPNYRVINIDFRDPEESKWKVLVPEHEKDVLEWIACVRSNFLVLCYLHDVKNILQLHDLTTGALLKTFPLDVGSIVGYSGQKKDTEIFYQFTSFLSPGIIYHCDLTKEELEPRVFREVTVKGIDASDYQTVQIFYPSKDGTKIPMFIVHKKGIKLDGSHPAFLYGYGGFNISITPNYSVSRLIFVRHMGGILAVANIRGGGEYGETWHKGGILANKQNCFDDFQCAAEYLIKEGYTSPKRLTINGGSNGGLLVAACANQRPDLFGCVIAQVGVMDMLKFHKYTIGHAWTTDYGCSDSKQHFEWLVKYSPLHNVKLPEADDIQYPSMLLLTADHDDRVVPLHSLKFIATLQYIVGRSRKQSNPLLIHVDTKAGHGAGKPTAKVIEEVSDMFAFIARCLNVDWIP
Experimental: as §1

FAP protein = target: T3, FAP protein (Homo sapiens, UniProt Q12884); assay: Biacore test of compound affinity to FAP protein; settings: Biacore 8K, SA chip, 15° C., 1:1 binding model; read-out: pKD (FAP) (converted)
T3 construct: purchased Sinobiological
T3 sequence (Q12884 1-760): T1 sequence (Q12884 1-760)
In short: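 FAP captured on an SA chip; compounds run as analyte in single-cycle kinetics at 15° C (90 s contact, 1800 s dissociation, 30 μL/min), reference-subtracted (2-1). Sensorgrams fitted to a 1:1 binding model to give KD, reported as pKD = −log KD.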

[4] = Animal body weight after injection of ^177Lu-labeled compound; settings: Day 2
Experimental: 6- to 8-week-old (Balb/c Nude) mice were subcutaneously inoculated on the right scapula with 2×10^6 cells of HT1080 2 # (50% o Matrigel, Corning). When the tumors grew to the size as required by the assay, the animals were randomly assigned to 13 experimental groups based on tumor volume, with 5 animals per group. The body weight and tumor size were measured. On the day of grouping, administration was initiated for the control group (normal saline) and groups 1-12. General health and appearance were observed daily after the experiment began. Body weight and tumor size were measured prior to each sample collection time point. Any abnormal observations found during the entire study period were required to be recorded in the raw data.

Sequence of dipeptidyl peptidase IV (DPPIV) (P27487 whole entry): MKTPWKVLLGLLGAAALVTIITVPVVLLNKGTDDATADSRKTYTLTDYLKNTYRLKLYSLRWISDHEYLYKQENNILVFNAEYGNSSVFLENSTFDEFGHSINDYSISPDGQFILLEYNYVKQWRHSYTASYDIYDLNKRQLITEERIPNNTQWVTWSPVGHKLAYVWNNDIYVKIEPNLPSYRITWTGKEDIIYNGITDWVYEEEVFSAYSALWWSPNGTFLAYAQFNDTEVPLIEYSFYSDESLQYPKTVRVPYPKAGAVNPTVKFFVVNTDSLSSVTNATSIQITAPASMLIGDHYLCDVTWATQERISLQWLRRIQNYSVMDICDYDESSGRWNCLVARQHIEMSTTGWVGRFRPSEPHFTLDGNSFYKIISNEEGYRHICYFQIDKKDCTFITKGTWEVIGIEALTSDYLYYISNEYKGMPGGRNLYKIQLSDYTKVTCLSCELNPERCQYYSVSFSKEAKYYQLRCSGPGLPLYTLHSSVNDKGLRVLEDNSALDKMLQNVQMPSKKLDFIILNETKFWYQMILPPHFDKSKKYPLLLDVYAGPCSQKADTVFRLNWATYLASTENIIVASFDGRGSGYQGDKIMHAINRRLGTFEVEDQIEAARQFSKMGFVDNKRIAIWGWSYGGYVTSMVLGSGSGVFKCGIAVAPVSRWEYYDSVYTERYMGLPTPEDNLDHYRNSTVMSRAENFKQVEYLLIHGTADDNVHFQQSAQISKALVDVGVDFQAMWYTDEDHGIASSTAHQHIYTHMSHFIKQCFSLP

Structure (SMILES)	IC50 [1]	IC50 [2]	IC50 [3]	Kd (FAP protein)	Animal body weight [4]
CCCCCC(=O)N[C@H]1CSCc2cccc(c2)CSC[C@@H](C(=O)N[C@@H](CCC(=O)NCCNC(=O)CN2CCN(CC(=O)O)CCN(CC(=O)O)CCN(CC(=O)O)CC2)C(=O)O)NC(=O)[C@H](Cc2ccccc2)NC(=O)[C@H](CCC(N)=O)NC(=O)[C@H]([C@@H](C)O)NC(=O)[C@@H]2CCCN2C(=O)C2CN(C2)C1=O [JHDC23, Hex[Cys(3MeBn)-hhy39-Pro-Thr-Gln-Phe-Cys]-Glu-(EDA-DOTA)-OH]	> 1 µM	< 0.01 µM	> 1 µM	0.01 to 0.1 µM	
CCCCNC(=O)N[C@H]1CSCc2cccc(c2)CSC[C@@H](C(=O)N[C@@H](CCC(=O)NCCCC(=O)CN2CCN(CC(=O)O)CCN(CC(=O)O)CCN(CC(=O)O)CC2)C(=O)O)NC(=O)[C@H](Cc2ccccc2)NC(=O)[C@H](CCC(N)=O)NC(=O)[C@H]([C@@H](C)O)NC(=O)[C@@H]2CCCN2C(=O)C2CN(C2)C1=O [JHDC24, nBu-urea-[Cys(3MeBn)-hhy39-Pro-Thr-Gln-Phe-Cys]-Glu-(EDA-DOTA)-OH] ({NHBu-CO}-C[Azetidine3carboxylic]PTQFCE(X1)-OH; linker 1-7 via mXylylene)	> 1 µM	< 0.01 µM	> 1 µM	0.01 to 0.1 µM	
CCCCNC(=O)N[C@H]1CSCc2cccc(c2)CSCC(C(=O)N[C@@H](CNC(=O)CN2CCN(C(=O)CN3CCN(CC(=O)O)CCN(CC(=O)O)CCN(CC(=O)O)CC3)CC2)C(=O)O)NC(=O)[C@H](CC2CCCCC2)NC(=O)[C@H](CCC(N)=O)NC(=O)[C@H]([C@@H](C)O)NC(=O)C2CCCN2C(=O)C2CN(C2)C1=O (stereo partly drawn) [JHDC47, nBu-urea-[Cys(3MeBn)-hhy39-Pro-Thr-Gln-hhy34-Cys]-DAPA-(Ac-piperazine-DOTA)-OH] ({NHBu-CO}-C[Azetidine3carboxylic][ξP]TQ[Cha][ξC][Dap](Acetyl(4-DOTA-piperazinyl))-OH; linker 1-7 via mXylylene)	> 1 µM	< 0.01 µM	> 1 µM	< 0.01 µM	
CCCCNC(=O)N[C@H]1CSCc2cccc(c2)CSC[C@@H](C(=O)N[C@@H](CCC(=O)NCCCN2CCN(C(=O)CN3CCN(CC(=O)O)CCN(CC(=O)O)CCN(CC(=O)O)CC3)CC2)C(=O)O)NC(=O)[C@H](Cc2ccccc2)NC(=O)[C@H](CCC(N)=O)NC(=O)[C@H]([C@@H](C)O)NC(=O)C2CCCN2C(=O)C2CN(C2)C1=O (stereo partly drawn) [JHDC48, nBu-urea-[Cys(3MeBn)-hhy39-Pro-Thr-Gln-Phe-Cys]-Glu-(aminopropylpiperazine-DOTA)-OH] ({NHBu-CO}-C[Azetidine3carboxylic][ξP]TQFCE(X2)-OH; linker 1-7 via mXylylene)	> 1 µM	< 0.01 µM	> 1 µM	0.01 to 0.1 µM	
CCCCNC(=O)N[C@H]1CSCc2cccc(c2)CSCC(C(=O)N[C@@H](CCNC(=O)CCCCCCCNC(=O)CN2CCN(CC(=O)O)CCN(CC(=O)O)CCN(CC(=O)O)CC2)C(=O)O)NC(=O)[C@H](CC2CCCCC2)NC(=O)[C@H](CCC(N)=O)NC(=O)[C@H]([C@@H](C)O)NC(=O)C2CCCN2C(=O)C2CN(C2)C1=O (stereo partly drawn) [JHDC53, nBu-urea-[Cys(3MeBn)-hhy39-Pro-Thr-Gln-hhy34-Cys]-DABA-(AOA-DOTA)-OH] ({NHBu-CO}-C[Azetidine3carboxylic][ξP]TQ[Cha][ξC][Dab]([Aoc-DOTA])-OH; linker 1-7 via mXylylene)	> 1 µM	< 0.01 µM	> 1 µM	0.01 to 0.1 µM	
CCCCNC(=O)N[C@H]1CSCc2cccc(c2)CSCC(C(=O)N[C@@H](CCNC(=O)CNC(=O)CN2CCN(CC(=O)O)CCN(CC(=O)O)CCN(CC(=O)O)CC2)C(=O)O)NC(=O)[C@H](CC2CCCCC2)NC(=O)[C@H](CCC(N)=O)NC(=O)[C@H]([C@@H](C)O)NC(=O)[C@@H]2CCCN2C(=O)C2CN(C2)C1=O (stereo partly drawn) [JHDC56, nBu-urea-[Cys(3MeBn)-hhy39-Pro-Thr-Gln-hhy34-Cys]-DABA-(Gly-DOTA)-OH]	> 1 µM	< 0.01 µM	> 1 µM	< 0.01 µM	
CCCCNC(=O)N[C@H]1CSCc2cccc(c2)CSCC(C(=O)N[C@@H](CNC(=O)CN2CCN(C(=O)CN3CCN(CC(=O)O)CCN(CC(=O)O)CCN(CC(=O)O)CC3)CC2)C(=O)O)NC(=O)[C@H](CC2CCCCC2)NC(=O)[C@H](CCC(N)=O)NC(=O)[C@H]([C@@H](C)O)NC(=O)C2CCCN2C(=O)C2CN(C2)C1=O (stereo partly shown) [^177Lu-JHDC47, metal not drawn] ({NHBu-CO}-C[Azetidine3carboxylic][ξP]TQ[Cha][ξC][Dap](Acetyl(4-DOTA-piperazinyl))-OH; linker 1-7 via mXylylene)					16.00 ± 0.54 g
